Test: Hydroxyapatite assay (hydroxyapatite adsorption chromatography, bone-targeting potential)
Type: physicochemical
Details: corrected retention K=(retention time−void time)/void on TSK-Gel HA 1000 column; linear gradient 10 mM to 500 mM sodium phosphate, 0.15 N NaCl, pH 6.8
Protocol: Hydroxyapatite is the principal mineral component of bone. Hydroxyapatite adsorption chromatography is used as an assay to evaluate the bone-targeting potential of both individual bone-targeting moieties (“monomers”) and of pharmaceuticals incorporating bone-targeting groups.
Method: The rentention time of a test compound is measured using a linear gradient from 10 mM sodium phosphate, 0.15 N NaCl, pH=6.8 to 500 mM sodium phosphate, 0.15 N NaCl, […] on a TSK-Gel HA 1000 high pressure liquid chromatography column (7.5 mm×75 mm). […] This K value is corrected using two reference compounds to correct from inter-column and inter-system variation to obtain a K′ value.
Reference Compounds: K′ values were determined for known bone targeted compounds, the bisphosphonate, alendronate and tetracycline.

## NCCCC(O)(P(=O)(O)O)P(=O)(O)O [Alendronate, alendronate]
  K′ value: 3.7
